# Measured values as given in US20240207285A1 (Melt Pharmaceuticals, Inc., priority 2022, published 2024).
# How the values were obtained:
# [1] = system: subjects undergoing cataract extraction with lens replacement (CELR); assay: Phase 2 subjects achieving procedural sedation (RSS 2 or 3 without rescue); type: in vivo, human; conditions: Visit 2 (Day 1), Full Analysis Set
# Description: A Phase 2 efficacy and safety study of the MELT-300 formulation was conducted at nine sites with over 300 enrolled subjects. MELT-300 is a sublingual, needle- and opioid-free formulation for procedural sedation during cataract surgery. […] MELT-300 utilizes fast-dissolving delivery technology (Zydis®, Catalent Inc.) to rapidly dissolve the tablet for absorption across the sublingual mucosa.
# (§1) The Phase 2 study was factorial-designed, randomized, double-blind, placebo-controlled, and included parallel-cohorts. […] Primary efficacy endpoints included appropriate sedation during the cataract surgery and management of intraoperative pain during the surgery.
# Achievement of procedural sedation was evaluated for each subject (see TABLE 19). Success for procedural sedation for this Phase 2 study was defined as achieving target sedation level (Ramsay Sedation Scale (RSS) scale level 2 or 3) at the start of surgery without the need for rescue sedation medication, and no need for intraoperative rescue sedation medication to maintain target sedation level.
# [2] = system: subjects undergoing cataract extraction with lens replacement (CELR); assay: Phase 2 mean intraoperative analgesia by the numeric pain rating scale; type: in vivo, human
# Description: An average of the available timepoints was also calculated.
# [3] = system: subjects undergoing cataract extraction with lens replacement (CELR); assay: Phase 2 subjects receiving opioid concomitant medication postoperatively; type: in vivo, human
# [4] = system: subjects undergoing cataract extraction with lens replacement (CELR); assay: Phase 2 subjects achieving analgesia response (NPRS <4); type: in vivo, human; conditions: Visit 2 (Day 1), observed
# Description: (§2) The number of subjects achieving analgesia response (observed) in the full analysis set was determined. Success in analgesia response was defined as NPRS <4 at the available at the available four intraoperative timepoints and a failure otherwise (e.g., any interoperative pain rescue was assumed to be a failure. Results are provided in TABLE 24. The number of subjects completing the surgery is provided in TABLE 25, and the number of subjects completing the surgery without interruption is provided in TABLE 26. For this measure, subjects completing the surgery without interruption (other than rescue medication) due to pain or anxiety were considered successes. The number of subjects requiring rescue sedative medication and those requiring analgesic medication are provided in TABLES 27 and 28, respectively. For all TABLES 24-28, p-Values between pairs of treatments were calculated and are provided.
# [5] = system: subjects undergoing cataract extraction with lens replacement (CELR); assay: Phase 2 subjects requiring rescue analgesic medication; type: in vivo, human; conditions: Visit 2 (Day 1); Full Analysis Set
# Description: as §2
# [6] = system: subjects undergoing cataract extraction with lens replacement (CELR); assay: Phase 2 subjects wanting study drug again for a second surgery (11-point Likert scale); type: in vivo, human
# Description: Post-operation, subjects were asked whether they would want the study drug again for a second surgery using an 11-point Likert scale of 0 (not likely at all) to 10 (extremely likely).
# [7] = system: subjects undergoing cataract extraction with lens replacement (CELR); assay: Phase 2 subjects requiring rescue sedative medication; type: in vivo, human; conditions: Visit 2 (Day 1)
# Description: as §2
# [8] = system: subjects undergoing cataract extraction with lens replacement (CELR); assay: Phase 2 subject-rated worst pain during surgery by the numeric pain rating scale; type: in vivo, human; conditions: carry forward
# [9] = system: subjects undergoing cataract extraction with lens replacement (CELR); assay: Phase 2 subjects completing the surgery; type: in vivo, human; conditions: Visit 2 (Day 1); Full Analysis Set
# Description: as §2
# [10] = system: subjects undergoing cataract extraction with lens replacement (CELR); assay: Phase 2 subjects completing the surgery without interruption; type: in vivo, human; conditions: Visit 2 (Day 1); Full Analysis Set
# Description: as §2
# [11] = system: subjects undergoing cataract extraction with lens replacement (CELR); assay: Phase 2 treatment-emergent ocular adverse events (study eye, non-study eye, either eye); conditions: for Eye disorders, % / General disorders and administration site conditions, % / Infections and infestations, % / Injury, poisoning and procedural complications, % / Investigations, %: system organ class
# Description: as §1
# The study eye (TABLE 31) non-study eye (TABLE 32), or either eye (TABLE 33) was assessed. TEAES were defined as events that started on or after the date of the study drug administration through the end of Visit 4 or early withdrawal. Subjects with one or more adverse event within a level of Medical Dictionary for Regulatory Activities (MedDRA) were counted only once in that level.
# [12] = Average of available timepoints, adjusted for site table, carry forward
# [13] = Average of available timepoints, carry forward
# [14] = Average of available timepoints, observed
# [15] = Corneal incision, adjusted for site table, carry forward
# [16] = Corneal incision, carry forward
# [17] = Insertion of the phacoemulsion probe, adjusted for site table, carry forward
# [18] = Insertion of the phacoemulsion probe, carry forward
# [19] = Insertion of the phacoemulsion probe, observed
# [20] = Insertion of the speculum, adjusted for site table, carry forward
# [21] = Insertion of the speculum, carry forward
# [22] = Insertion of the speculum, observed
# [23] = Insertion of the synthetic replacement lens, adjusted for site table, carry forward
# [24] = Insertion of the synthetic replacement lens, carry forward
# [25] = Insertion of the synthetic replacement lens, observed
# [26] = 11-point Likert scale 0 (not likely at all) to 10 (extremely likely)
structure (smiles),measurement,setting,value
CNC1(c2ccccc2Cl)CCCCC1=O (stereo not drawn) [Ketamine 50 mg],"Subjects achieving procedural sedation: No, %",[1],36.7%
same,"Subjects achieving procedural sedation: Yes, %",[1]; RSS 2 or 3 without rescue sedation,63.3%
same,"Intraoperative NPRS, LS Mean","[2]; Average of available timepoints, adjusted for site (study center covariate), carry forward",1.89
same,"Intraoperative NPRS, mean",[2]; [12],2.16
same,"Intraoperative NPRS, median",[2]; [12],1.75
same,"Intraoperative NPRS, mean",[2]; [13],2.16
same,"Intraoperative NPRS, median",[2]; [13],1.75
same,"Intraoperative NPRS, LS Mean","[2]; Average of available timepoints, carry forward, repeated measures model",2.16
same,"Intraoperative NPRS, mean",[2]; [14],2.00
same,"Intraoperative NPRS, median",[2]; [14],1.75
same,"Intraoperative NPRS, LS Mean","[2]; Average of available timepoints, observed, repeated measures model",2.22
same,"Intraoperative NPRS, mean",[2]; [15],1.8
same,"Intraoperative NPRS, median",[2]; [15],1.0
same,"Intraoperative NPRS, mean",[2]; [16],1.8
same,"Intraoperative NPRS, median",[2]; [16],1.0
same,"Intraoperative NPRS, mean","[2]; Corneal incision, observed",1.7
same,"Intraoperative NPRS, median","[2]; Corneal incision, observed",1.0
same,"Intraoperative NPRS, mean",[2]; [17],2.5
same,"Intraoperative NPRS, median",[2]; [17],2.0
same,"Intraoperative NPRS, mean",[2]; [18],2.5
same,"Intraoperative NPRS, median",[2]; [18],2.0
same,"Intraoperative NPRS, mean",[2]; [19],2.1
same,"Intraoperative NPRS, median",[2]; [19],2.0
same,"Intraoperative NPRS, mean",[2]; [20],1.1
same,"Intraoperative NPRS, median",[2]; [20],1.0
same,"Intraoperative NPRS, mean",[2]; [21],1.1
same,"Intraoperative NPRS, median",[2]; [21],1.0
same,"Intraoperative NPRS, mean",[2]; [22],1.1
same,"Intraoperative NPRS, median",[2]; [22],1.0
same,"Intraoperative NPRS, mean",[2]; [23],3.3
same,"Intraoperative NPRS, median",[2]; [23],3.0
same,"Intraoperative NPRS, mean",[2]; [24],3.3
same,"Intraoperative NPRS, median",[2]; [24],3.0
same,"Intraoperative NPRS, mean",[2]; [25],2.5
same,"Intraoperative NPRS, median",[2]; [25],2.0
same,"Intraoperative NPRS, LS Mean Difference versus placebo","[2]; adjusted for site, carry forward",−0.30
same,"Intraoperative NPRS, LS Mean Difference versus placebo","[2]; carry forward, repeated measures model",−0.32
same,"Intraoperative NPRS, LS Mean Difference versus placebo","[2]; observed, repeated measures model",−0.26
same,"Received Postoperative Opioid on Day 2: No, %",[3]; Day 2,(100.0) %
same,"Received Postoperative Opioid on Day 2: Yes, %",[3]; Day 2,(0.0) %
same,"Received Postoperative Opioid on Day 2-8: No, %",[3]; Day 2-8,(100.0) %
same,"Received Postoperative Opioid on Day 2-8: Yes, %",[3]; Day 2-8,(0.0) %
same,"Subjects achieving analgesia response: Yes, %",[4]; NPRS <4 at four intraoperative timepoints,49.4%
same,"Subjects achieving analgesia response: No, %",[4],50.6%
same,"Subjects requiring rescue analgesic medication: No, %",[5],(59.5) %
same,"Subjects requiring rescue analgesic medication: Yes, %",[5],(40.5) %
same,"Want Study Drug Again, mean",[6]; [26],7.6
same,"Want Study Drug Again, median",[6]; [26],10.0
same,"Want Study Drug Again, Mean Difference versus placebo",[6]; unpaired t-test,−0.05
same,"Subjects requiring rescue sedative medication: No, %",[7]; Full Analysis Set,(63.3) %
same,"Subjects requiring rescue sedative medication: Yes, %",[7]; Full Analysis Set,(36.7) %
same,"Subjects requiring rescue sedative medication: Intraoperatively, %",[7]; Intraoperatively,(6.3) %
same,"Subjects requiring rescue sedative medication: Pre-operatively, %",[7]; Pre-operatively,(30.4) %
same,"Worst Pain During Surgery, Mean Difference versus placebo",[8],−0.33
same,"Worst Pain During Surgery (NPRS), mean",[8]; Full Analysis Set,3.7
same,"Worst Pain During Surgery (NPRS), median",[8]; Full Analysis Set,4.0
same,"Subjects completing the surgery: No, %",[9],0 (0) %
same,"Subjects completing the surgery: Yes, %",[9],100.0%
same,"Subjects completing the surgery without interruption: No, %",[10],(6.3) %
same,"Subjects completing the surgery without interruption: Yes, %",[10],(93.7) %
same,"Cataract operation complication, %",[11]; Either Eye,(0) %
same,"Conjunctivitis bacterial, %",[11]; Either Eye,(1.2) %
same,"Corneal abrasion, %",[11]; Either Eye,(0) %
same,"Corneal oedema, %",[11]; Either Eye,(1.2) %
same,"Endophthalmitis, %",[11]; Either Eye,(1.2) %
same,"Eye pain, %",[11]; Either Eye,(3.5) %
same,"Foreign body sensation in eyes, %",[11]; Either Eye,(0) %
same,"Intraocular pressure increased, %",[11]; Either Eye,(1.2) %
same,"Ocular hypertension, %",[11]; Either Eye,(1.2) %
same,"Pain, %",[11]; Either Eye,(0) %
same,"Paracentesis eye, %",[11]; Either Eye,(0) %
same,"Procedural pain, %",[11]; Either Eye,(0) %
same,"Subjects with Any Treatment-Emergent Ocular AEs, %",[11]; Either Eye,(8.2) %
same,"Vision blurred, %",[11]; Either Eye,(0) %
same,"Eye disorders, %",[11]; Either Eye,(5.9) %
same,"General disorders and administration site conditions, %",[11]; Either Eye,(0) %
same,"Infections and infestations, %",[11]; Either Eye,(2.4) %
same,"Injury, poisoning and procedural complications, %",[11]; Either Eye,(0) %
same,"Investigations, %",[11]; Either Eye,(1.2) %
same,"Conjunctivitis bacterial, %",[11]; Non-Study Eye,(1.2) %
same,"Eye pain, %",[11]; Non-Study Eye,(0) %
same,"Subjects with Any Treatment-Emergent Ocular AEs, %",[11]; Non-Study Eye,(1.2) %
same,"Vision blurred, %",[11]; Non-Study Eye,(0) %
same,"Eye disorders, %",[11]; Non-Study Eye,(0) %
same,"Infections and infestations, %",[11]; Non-Study Eye,(1.2) %
same,"Cataract operation complication, %",[11]; Study Eye,(0) %
same,"Corneal abrasion, %",[11]; Study Eye,(0) %
same,"Corneal oedema, %",[11]; Study Eye,(1.2) %
same,"Endophthalmitis, %",[11]; Study Eye,(1.2) %
same,"Eye pain, %",[11]; Study Eye,(3.5) %
same,"Foreign body sensation in eyes, %",[11]; Study Eye,(0) %
same,"Intraocular pressure increased, %",[11]; Study Eye,(1.2) %
same,"Ocular hypertension, %",[11]; Study Eye,(1.2) %
same,"Pain, %",[11]; Study Eye,(0) %
same,"Procedural pain, %",[11]; Study Eye,(0) %
same,"Subjects with Any Treatment-Emergent Ocular AEs, %",[11]; Study Eye,(7.1) %
same,"Eye disorders, %",[11]; Study Eye,(5.9) %
same,"General disorders and administration site conditions, %",[11]; Study Eye,(0) %
same,"Infections and infestations, %",[11]; Study Eye,(1.2) %
same,"Injury, poisoning and procedural complications, %",[11]; Study Eye,(0) %
same,"Investigations, %",[11]; Study Eye,(1.2) %
same,"Paracentesis eye, %",[11]; printed in the Non-Study Eye table,(0) %
